Data on five compounds can be found in PubChem BioAssay AID1259411 (Chemical Carcinogenesis Research Information System (CCRIS), 2018).

Activity calls are given as the source filed them. No rule for the calls is given here.

The test system of this data set is rodent carcinogenicity bioassays, tumor incidence. The experiment in a line: CCRIS carcinogenicity studies. The following applies: Dose: 0, Dose: 0. Put shortly:
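Archive of carcinogenicity, mutagenicity, tumor promotion and tumor inhibition results drawn from journals, NCI reports and other sources, expert-reviewed; covers 1985-2011 and is no longer updated.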

In the case of `COc1cc(OC)nc(NC(=O)NS(=O)(=O)c2cc(NC=O)ccc2C(=O)N(C)C)n1`, the carcinogen call (Species: Mouse, Strain/Sex: Crl:CD-1(ICR)BR/Female (51/Group), Route: Oral, 40, 800, 8000 ppm of 94.6% foramsulfuron in diet for 80 wk, study duration 80 wk, 40, 800, 8000 ppm of 94.6% foramsulfuron in diet for 80 wk, study duration 80 wk) was “inactive; negative”; the carcinogen call (Species: Mouse, Strain/Sex: Crl:CD-1(ICR)BR/Male (51/Group), Route: Oral, 40, 800, 8000 ppm of 94.6% foramsulfuron in diet for 80 wk, study duration 80 wk, 40, 800, 8000 ppm of 94.6% foramsulfuron in diet for 80 wk, study duration 80 wk) was “inactive; negative”; the carcinogen call (Species: Rat, Strain/Sex: Sprague Dawley CRL:CD (IGS) BR/Female (50/Group), Route: Oral, 100, 600, 6000, 20,000 ppm of 94.6% foramsulfuron in diet for 104 wk, study duration 104 wk, 100, 600, 6000, 20,000 ppm of 94.6% foramsulfuron in diet for 104 wk, study duration 104 wk) was “inactive; negative”; the carcinogen call (Species: Rat, Strain/Sex: Sprague Dawley CRL:CD (IGS) BR/Male (50/Group), Route: Oral, 100, 600, 6000, 20,000 ppm of 94.6% foramsulfuron in diet for 104 wk, study duration 104 wk, 100, 600, 6000, 20,000 ppm of 94.6% foramsulfuron in diet for 104 wk, study duration 104 wk) is “inactive; negative”.
In the case of `CC#N`, the carcinogen call is, setting by setting: (Species: MOUSE, Strain/Sex: B6C3F1/FEMALE, Route: INHALATION, 50, 100, 200 PPM 6 HR/D 5 D/WK FOR 103 WK (STUDY DURATION: 105 WK), 50, 100, 200 PPM 6 HR/D 5 D/WK FOR 103 WK (STUDY DURATION: 105 WK)) “inactive; negative”; (Species: MOUSE, Strain/Sex: B6C3F1/MALE, Route: INHALATION, 50, 100, 200 PPM 6 HR/D 5 D/WK FOR 103 WK (STUDY DURATION: 105 WK), 50, 100, 200 PPM 6 HR/D 5 D/WK FOR 103 WK (STUDY DURATION: 105 WK)) “inactive; negative”; (Species: RAT, Strain/Sex: F344/FEMALE, Route: INHALATION, 100, 200, 400 PPM 6/HR/D 5 D/WK FOR 103 WK (STUDY DURATION: 105 WK), 100, 200, 400 PPM 6/HR/D 5 D/WK FOR 103 WK (STUDY DURATION: 105 WK)) “inactive; negative”; (Species: RAT, Strain/Sex: F344/MALE, Route: INHALATION, 100, 200, 400 PPM 6/HR/D 5 D/WK FOR 103 WK (STUDY DURATION: 105 WK), 100, 200, 400 PPM 6/HR/D 5 D/WK FOR 103 WK (STUDY DURATION: 105 WK), Tumor Site: Type of Lesion: LIVER: HEPATOCELLULAR ADENOMA, HEPATOCELLULAR CARCINOMA, HEPATOCELLULAR ADENOMA OR CARCINOMA) “equivocal”.
`CCCSP(=O)(OCC)SCCC`: the carcinogen call runs as follows: (Species: Mouse, Strain/Sex: B6C3F1/Female (50/Group), Route: Oral, 0.2, 2, 30 ppm of 94.6% ethoprop in diet for 104 wk, study duration 104 wk, 0.2, 2, 30 ppm of 94.6% ethoprop in diet for 104 wk, study duration 104 wk) “inactive; negative”; (Species: Mouse, Strain/Sex: B6C3F1/Male (50/Group), Route: Oral, 0.2, 2, 30 ppm of 94.6% ethoprop in diet for 104 wk, study duration 104 wk, 0.2, 2, 30 ppm of 94.6% ethoprop in diet for 104 wk, study duration 104 wk) “inactive; negative”; (Species: Rat, Strain/Sex: Crl:CD(SD)BR VAF/Plus/Female (80-90/Group), Route: Oral, 60, 400 (reduced from 600 during wk 3) ppm of 95.6% ethoprop in diet for 104 wk, study duration 104 wk, 60, 400 (reduced from 600 during wk 3) ppm of 95.6% ethoprop in diet for 104 wk, study duration 104 wk) “inactive; negative”; (Species: Rat, Strain/Sex: Crl:CD(SD)BR VAF/Plus/Male (80-90/Group), Route: Oral, 60, 400 (reduced from 600 during wk 3) ppm of 95.6% ethoprop in diet for 104 wk, study duration 104 wk, 60, 400 (reduced from 600 during wk 3) ppm of 95.6% ethoprop in diet for 104 wk, study duration 104 wk) “inactive; negative”.
On to `Nc1nc(/C=C/c2ccc([N+](=O)[O-])o2)no1`, for which the carcinogen call by setting is: (Species: MOUSE, Strain/Sex: CD-1/FEMALE, Route: GAVAGE, 41, 82, 173 MG/KG/D SUSPENDED IN 25% GLYCEROL 4 D/WK FOR 371 D (TOTAL DOSE 0; 15.4; 30.9; 64.2 G) (STUDY DURATION: LI, 41, 82, 173 MG/KG/D SUSPENDED IN 25% GLYCEROL 4 D/WK FOR 371 D (TOTAL DOSE 0; 15.4; 30.9; 64.2 G) (STUDY DURATION: LI, Tumor Site: Type of Lesion: THYMUS: LYMPHOMA, BLADDER: TRANSITIONAL CELL CARCINOMA, STOMACH: SQUAMOUS CELL CARCINOMA, SQUAMOUS PAPILLOMA, LUNG: ADEN, Tumor Site: Type of Lesion: THYMUS: LYMPHOMA, BLADDER: TRANSITIONAL CELL CARCINOMA, STOMACH: SQUAMOUS CELL CARCINOMA, SQUAMOUS PAPILLOMA, LUNG: ADEN) “active; positive”; (Species: MOUSE, Strain/Sex: CD-1/FEMALE, Route: ORAL, 0.17% IN DIET FOR 58 WK (STUDY DURATION: 91 WK), Tumor Site: Type of Lesion: HEMATOPOIETIC SYSTEM: LYMPHOMA, THYMUS: LYMPHOMA, STOMACH: SQUAMOUS CELL CARCINOMA, SPINDLE CELL TUMOR, Tumor Site: Type of Lesion: HEMATOPOIETIC SYSTEM: LYMPHOMA, THYMUS: LYMPHOMA, STOMACH: SQUAMOUS CELL CARCINOMA, SPINDLE CELL TUMOR) “active; positive”; (Species: MOUSE, Strain/Sex: CD-1/FEMALE, Route: ORAL, 0.25% IN DIET FOR 31 WK (STUDY DURATION: LIFE), Tumor Site: Type of Lesion: THYMUS: LYMPHOMA, STOMACH: SQUAMOUS CELL CARCINOMA, LUNG: ADENOMA, MAMMARY GLAND: ADENOCARCINOMA, Tumor Site: Type of Lesion: THYMUS: LYMPHOMA, STOMACH: SQUAMOUS CELL CARCINOMA, LUNG: ADENOMA, MAMMARY GLAND: ADENOCARCINOMA) “active; positive”; (Species: MOUSE, Strain/Sex: CD-1/MALE, Route: GAVAGE, 45, 87, 185 MG/KG/D SUSPENDED IN 25% GLYCEROL 4 D/WK FOR 371 D (TOTAL DOSE 0; 16.8; 32.3; 68.8 G) (STUDY DURATION: LI, 45, 87, 185 MG/KG/D SUSPENDED IN 25% GLYCEROL 4 D/WK FOR 371 D (TOTAL DOSE 0; 16.8; 32.3; 68.8 G) (STUDY DURATION: LI, Tumor Site: Type of Lesion: THYMUS: LYMPHOMA, BLADDER: TRANSITIONAL CELL CARCINOMA, STOMACH: SQUAMOUS CELL CARCINOMA, SQUAMOUS PAPILLOMA, LUNG: ADEN, Tumor Site: Type of Lesion: THYMUS: LYMPHOMA, BLADDER: TRANSITIONAL CELL CARCINOMA, STOMACH: SQUAMOUS CELL CARCINOMA, SQUAMOUS PAPILLOMA, LUNG: ADEN) “active; positive”; (Species: MOUSE, Strain/Sex: CD-1/MALE, Route: ORAL, 0.18% IN DIET FOR 58 WK (STUDY DURATION: 92 WK), Tumor Site: Type of Lesion: THYMUS: LYMPHOMA, BLADDER: TRANSITIONAL CELL CARCINOMA, STOMACH: SQUAMOUS CELL CARCINOMA, SPINDLE CELL TUMOR, Tumor Site: Type of Lesion: THYMUS: LYMPHOMA, BLADDER: TRANSITIONAL CELL CARCINOMA, STOMACH: SQUAMOUS CELL CARCINOMA, SPINDLE CELL TUMOR) “active; positive”; (Species: MOUSE, Strain/Sex: CD-1/MALE, Route: ORAL, 0.25% IN DIET FOR 38 WK (STUDY DURATION: LIFE), Tumor Site: Type of Lesion: THYMUS: LYMPHOMA, BLADDER: TRANSITIONAL CELL CARCINOMA, SPINDLE CELL TUMOR, STOMACH: SQUAMOUS CELL CARCINOMA, SQUAMOUS P, Tumor Site: Type of Lesion: THYMUS: LYMPHOMA, BLADDER: TRANSITIONAL CELL CARCINOMA, SPINDLE CELL TUMOR, STOMACH: SQUAMOUS CELL CARCINOMA, SQUAMOUS P) “active; positive”.
As for `C=COc1ccc([N+](=O)[O-])cc1`, the carcinogen call (Species: MOUSE, Strain/Sex: B6C3F1/MALE, Route: INTRAPERITONEAL, 60, 300 NMOL/G BW IN 10 µL TRIOCTANOIN ONCE (STUDY DURATION: 10 MO), 60, 300 NMOL/G BW IN 10 µL TRIOCTANOIN ONCE (STUDY DURATION: 10 MO), Tumor Site: Type of Lesion: LIVER: HEPATOMA) was “active; positive”.
